From publication PMC9733911 (2022)

Test system: d(CTG)16 (DNA, repeat) GGGCTGCTGCTGCTGCTGCTGCTGCTGCTGCTGCTGCTGCTGCTGCTGCTGCCC
Test: ITC
Details: monomer alone

Row | Kd [µM] | SMILES
1 | 81.6 ± 0.9 | N=C(NCCCCNc1nc(N)nc(NCc2ccc(C=O)cc2)n1)c1ccc(C(=N)NCCCCNc2nc(N)nc(NCc3ccc(C=O)cc3)n2)cc1
2 | > 100 | N=C(NCCCCNc1nc(N)nc(NCc2ccc(N)cc2)n1)c1ccc(C(=N)NCCCCNc2nc(N)nc(NCc3ccc(N)cc3)n2)cc1
